Assay results from publication PMC11062899, “De novo development of small cyclic peptides that are orally bioavailable” (Nature Chemical Biology, 2023).
“And” between values parts separate entries of the source, which are not always exact repeats. Identical values can stand only once. Like-named read-outs stand apart in the source and are kept apart here.

Key:
rat α-thrombin = biological target: T1, rat α-thrombin (Rattus norvegicus, UniProt P18292); assay: Protease inhibition, Ki for rat α-thrombin (fluorogenic substrate Z-Gly-Gly-Arg-AMC); format: biochemical; conditions: for slope normalized to DMSO, rat alpha thrombin inhibition / Rat alpha thrombin inhibition, slope normalized to DMSO: replicates R1-R3
T1 construct: rat α-thrombin (Molecular Innovations) were used at final concentrations of 2 nM and 3 nM; purchased Molecular Innovations
Procedure, shortened: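 Ki derived through Cheng–Prusoff from IC50s (four-parameter logistic fit) against activity of peptide-free controls. Product fluorescence was read every 3 min over 30 min at 25 °C, substrate Z-Gly-Gly-Arg-AMC at 50 μM. Enzyme was 2 nM human or 3 nM rat α-thrombin, pH 7.4 buffer.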

[1] = Peptide stability in simulated intestinal fluid (SIF); format: in vitro ADME, porcine; conditions: pig, simulated gi fluid; 8 h, 37 °C, pH 6.8; read-out: Proteolytic stability: SIF (8 h) % remaining
Procedure, shortened: (§1)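 Peptide from a 1 mM DMSO stock was added to fluid pre-warmed at 37 °C. SGF was pH 1.2 NaCl with porcine pepsin (0.32 g per 100 ml), and SIF was pH 6.8 potassium phosphate with porcine pancreatin (1 g per 100 ml). Supernatant peptide was quantified by LC–MS, with residual expressed as T1/T0.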

porcine pepsin = biological target: T2, porcine pepsin (Sus scrofa, UniProt P00791); assay: Peptide stability in simulated gastric fluid (SGF); format: in vitro ADME; conditions: pig, simulated gi fluid; 8 h, 37 °C, pH 1.2; read-out: Proteolytic stability: SGF (8 h) % remaining
T2 construct: 0.32 g of porcine pepsin (Sigma-Aldrich, P7125) was dissolved under gentle agitation; purchased Sigma-Aldrich P7125
Procedure, shortened: as §1

[2] = Metabolic stability in rat liver microsomes (RLMs); conditions: for TIC value of compound, metabolic stability RLM: replicates R1-R3; for microsomal CLint / half-life: rat, microsomes

T2 sequence (P00791 60-385): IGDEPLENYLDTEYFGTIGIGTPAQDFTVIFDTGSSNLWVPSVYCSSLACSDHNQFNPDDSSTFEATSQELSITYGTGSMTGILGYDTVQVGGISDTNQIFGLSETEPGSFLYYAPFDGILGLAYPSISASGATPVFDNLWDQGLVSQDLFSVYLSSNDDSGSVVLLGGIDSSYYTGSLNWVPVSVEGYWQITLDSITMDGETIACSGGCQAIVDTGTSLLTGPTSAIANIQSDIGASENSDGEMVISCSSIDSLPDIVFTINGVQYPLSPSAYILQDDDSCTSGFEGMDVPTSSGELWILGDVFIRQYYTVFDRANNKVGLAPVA

## O=C1C[C@H]2CCCN2C(=O)[C@H](Cc2ccccc2)NC(=O)[C@@H](NC(=O)c2ccc(Cl)s2)CCC=CCCCCN1 [peptide 43]
Rat α-thrombin; peptide 1.00E+02 uM
  slope normalized to DMSO, rat alpha thrombin inhibition: 5.4 and 5.2 and 4.3
Rat α-thrombin; peptide 1.19E-05 uM
  slope normalized to DMSO, rat alpha thrombin inhibition: 102.6 and 102.2 and 91.2
Rat α-thrombin; peptide 1.22E-02 uM
  slope normalized to DMSO, rat alpha thrombin inhibition: 54.9 and 61.5 and 61.2
Rat α-thrombin; peptide 1.25E+01 uM
  slope normalized to DMSO, rat alpha thrombin inhibition: 7.2 and 11.2 and 5.0
Rat α-thrombin; peptide 1.53E-03 uM
  slope normalized to DMSO, rat alpha thrombin inhibition: 90.8 and 92.4 and 84.4
Rat α-thrombin; peptide 1.56E+00 uM
  slope normalized to DMSO, rat alpha thrombin inhibition: 8.6 and 7.9 and 7.3
Rat α-thrombin; peptide 1.91E-04 uM
  slope normalized to DMSO, rat alpha thrombin inhibition: 101.3 and 100.0 and 99.0
Rat α-thrombin; peptide 1.95E-01 uM
  slope normalized to DMSO, rat alpha thrombin inhibition: 18.2 and 17.7 and 18.1
Rat α-thrombin; peptide 2.38E-05 uM
  slope normalized to DMSO, rat alpha thrombin inhibition: 104.9 and 102.6 and 101.9
Rat α-thrombin; peptide 2.44E-02 uM
  slope normalized to DMSO, rat alpha thrombin inhibition: 50.2 and 48.9 and 44.8
Rat α-thrombin; peptide 2.50E+01 uM
  slope normalized to DMSO, rat alpha thrombin inhibition: 4.6 and 8.1 and 4.9
Rat α-thrombin; peptide 3.05E-03 uM
  slope normalized to DMSO, rat alpha thrombin inhibition: 90.9 and 88.2 and 90.2
Rat α-thrombin; peptide 3.12E+00 uM
  slope normalized to DMSO, rat alpha thrombin inhibition: 7.5 and 10.1 and 7.1
Rat α-thrombin; peptide 3.81E-04 uM
  slope normalized to DMSO, rat alpha thrombin inhibition: 96.2 and 101.3 and 91.7
Rat α-thrombin; peptide 3.91E-01 uM
  slope normalized to DMSO, rat alpha thrombin inhibition: 12.4 and 9.5 and 6.1
Rat α-thrombin; peptide 4.77E-05 uM
  slope normalized to DMSO, rat alpha thrombin inhibition: 105.1 and 89.9 and 85.4
Rat α-thrombin; peptide 4.88E-02 uM
  slope normalized to DMSO, rat alpha thrombin inhibition: 32.8 and 33.4 and 28.7
Rat α-thrombin; peptide 5.00E+01 uM
  slope normalized to DMSO, rat alpha thrombin inhibition: 3.1 and 5.6 and 0.5
Rat α-thrombin; peptide 6.10E-03 uM
  slope normalized to DMSO, rat alpha thrombin inhibition: 72.5 and 78.4 and 84.7
Rat α-thrombin; peptide 6.25E+00 uM
  slope normalized to DMSO, rat alpha thrombin inhibition: 7.7 and -0.5
Rat α-thrombin; peptide 7.63E-04 uM
  slope normalized to DMSO, rat alpha thrombin inhibition: 95.8 and 97.3 and 89.3
Rat α-thrombin; peptide 7.81E-01 uM
  slope normalized to DMSO, rat alpha thrombin inhibition: 10.1 and 10.3 and 8.9
Rat α-thrombin; peptide 9.54E-05 uM
  slope normalized to DMSO, rat alpha thrombin inhibition: 96.1 and 92.0 and 94.2
Rat α-thrombin; peptide 9.77E-02 uM
  slope normalized to DMSO, rat alpha thrombin inhibition: 27.3 and 26.5 and 22.9
Rat α-thrombin; peptide concentration 1.00E+02 uM
  Rat alpha thrombin inhibition, slope normalized to DMSO: 5.4 and 5.2 and 4.3
Rat α-thrombin; peptide concentration 1.19E-05 uM
  Rat alpha thrombin inhibition, slope normalized to DMSO: 102.6 and 102.2 and 91.2
Rat α-thrombin; peptide concentration 1.22E-02 uM
  Rat alpha thrombin inhibition, slope normalized to DMSO: 54.9 and 61.5 and 61.2
Rat α-thrombin; peptide concentration 1.25E+01 uM
  Rat alpha thrombin inhibition, slope normalized to DMSO: 7.2 and 11.2 and 5.0
Rat α-thrombin; peptide concentration 1.53E-03 uM
  Rat alpha thrombin inhibition, slope normalized to DMSO: 90.8 and 92.4 and 84.4
Rat α-thrombin; peptide concentration 1.56E+00 uM
  Rat alpha thrombin inhibition, slope normalized to DMSO: 8.6 and 7.9 and 7.3
Rat α-thrombin; peptide concentration 1.91E-04 uM
  Rat alpha thrombin inhibition, slope normalized to DMSO: 101.3 and 100.0 and 99.0
Rat α-thrombin; peptide concentration 1.95E-01 uM
  Rat alpha thrombin inhibition, slope normalized to DMSO: 18.2 and 17.7 and 18.1
Rat α-thrombin; peptide concentration 2.38E-05 uM
  Rat alpha thrombin inhibition, slope normalized to DMSO: 104.9 and 102.6 and 101.9
Rat α-thrombin; peptide concentration 2.44E-02 uM
  Rat alpha thrombin inhibition, slope normalized to DMSO: 50.2 and 48.9 and 44.8
Rat α-thrombin; peptide concentration 2.50E+01 uM
  Rat alpha thrombin inhibition, slope normalized to DMSO: 4.6 and 8.1 and 4.9
Rat α-thrombin; peptide concentration 3.05E-03 uM
  Rat alpha thrombin inhibition, slope normalized to DMSO: 90.9 and 88.2 and 90.2
Rat α-thrombin; peptide concentration 3.12E+00 uM
  Rat alpha thrombin inhibition, slope normalized to DMSO: 7.5 and 10.1 and 7.1
Rat α-thrombin; peptide concentration 3.81E-04 uM
  Rat alpha thrombin inhibition, slope normalized to DMSO: 96.2 and 101.3 and 91.7
Rat α-thrombin; peptide concentration 3.91E-01 uM
  Rat alpha thrombin inhibition, slope normalized to DMSO: 12.4 and 9.5 and 6.1
Rat α-thrombin; peptide concentration 4.77E-05 uM
  Rat alpha thrombin inhibition, slope normalized to DMSO: 105.1 and 89.9 and 85.4
Rat α-thrombin; peptide concentration 4.88E-02 uM
  Rat alpha thrombin inhibition, slope normalized to DMSO: 32.8 and 33.4 and 28.7
Rat α-thrombin; peptide concentration 5.00E+01 uM
  Rat alpha thrombin inhibition, slope normalized to DMSO: 3.1 and 5.6 and 0.5
Rat α-thrombin; peptide concentration 6.10E-03 uM
  Rat alpha thrombin inhibition, slope normalized to DMSO: 72.5 and 78.4 and 84.7
Rat α-thrombin; peptide concentration 6.25E+00 uM
  Rat alpha thrombin inhibition, slope normalized to DMSO: 7.7 and -0.5
Rat α-thrombin; peptide concentration 7.63E-04 uM
  Rat alpha thrombin inhibition, slope normalized to DMSO: 95.8 and 97.3 and 89.3
Rat α-thrombin; peptide concentration 7.81E-01 uM
  Rat alpha thrombin inhibition, slope normalized to DMSO: 10.1 and 10.3 and 8.9
Rat α-thrombin; peptide concentration 9.54E-05 uM
  Rat alpha thrombin inhibition, slope normalized to DMSO: 96.1 and 92.0 and 94.2
Rat α-thrombin; peptide concentration 9.77E-02 uM
  Rat alpha thrombin inhibition, slope normalized to DMSO: 27.3 and 26.5 and 22.9
Rat α-thrombin; purified peptide, mean and s.d. of three measurements, read-out: Ki rat α-thrombin
  Ki: 11.1 ± 1.4 nM
Rat α-thrombin; single replicates R1-R3, read-out: Rat alpha thrombin inhibition, IC50
  IC50: 17.1 nM and 20.2 nM and 23.1 nM
Rat α-thrombin; single replicates R1-R3, read-out: Rat alpha thrombin inhibition, Ki
  Ki: 9.46 nM and 11.2 nM and 12.8 nM
[1]
  remaining at 8 h: 91 ± 9%
Porcine pepsin
  remaining at 8 h: 101 ± 12%
[2]; 0 min
  TIC value of compound, metabolic stability RLM: 15121279 (2×) and 12636158
[2]; 5 min
  TIC value of compound, metabolic stability RLM: 12214985 and 10185041 and 10498454
[2]; 15 min
  TIC value of compound, metabolic stability RLM: 8936637 and 6181065 and 6718551
[2]; 30 min
  TIC value of compound, metabolic stability RLM: 4407741 and 2845968 and 2692424
[2]; 60 min
  TIC value of compound, metabolic stability RLM: 749207 and 393357 and 268692
[2]; Fig. 5e source data
  CL (ul/min/mg protein) in RLMs (single replicates R1–R3): 82.7957 ul/min/mg protein and 93.0201 ul/min/mg protein and 80.07 ul/min/mg protein and 82.80 ul/min/mg protein and 93.02 ul/min/mg protein
  Half Life (min) in RLMs (single replicates R1–R3): 16.74 min and 14.9 min
[2]; individual replicates R1-R3
  Half Life, RLM: 16.74 min and 14.9 min
[2]; CL (ul/min/mg protein) in RLMs (single replicates R1–R3), Fig. 5e source data
  microsomal CLint: 80.1 µL/min/mg
[2]; Clearance (CL) in RLMs, calculated from half-life, mean and s.d. of three measurements
  microsomal CLint: 85 ± 6 µL/min/mg
[2]; Half Life (min) in RLMs (single replicates R1–R3), Fig. 5e source data
  half-life: 17.3 min
[2]; Half Life, RLM, individual replicates R1-R3
  half-life: 17.3 min
[2]; pH 7.4, CL (ul/min/mg protein) in RLMs Average, Fig. 5e source data
  microsomal CLint: 85.3 µL/min/mg
[2]; pH 7.4, Metabolic stability: Half life T1/2 (min), RLMs, mean and SD, three measurements
  half-life: 16.3 ± 1 min
